Key:
human factor XIa = biological target: T1, human factor XIa (Homo sapiens, UniProt P03951); assay: Measurement of FXIa inhibition (fluorogenic peptide substrate Boc-Glu(OBzl)-Ala-Arg-AMC); assay type: biochemical; conditions: factor XIa from Kordia, 15 min preincubation, 30 min at 22° C., fluorescence; some as mean values from multiple determinations
T1 construct: purchased Kordia
Protocol: (§1) The factor XIa inhibition of the substances according to the invention is determined using a biochemical test system which utilizes the reaction of a peptidic factor XIa substrate to determine the enzymatic activity of human factor XIa. Here, factor XIa cleaves from the peptidic factor XIa substrate the C-terminal aminomethylcoumarin (AMC), the fluorescence of which is measured. The determinations are carried out in microtitre plates.
Test substances are dissolved in dimethyl sulfoxide and serially diluted in dimethyl sulfoxide (3000 μM to 0.0078 μM; resulting final concentrations in the test: 50 μM to 0.00013 μM). In each case 1 μl of the diluted substance solutions is placed into the wells of white microtitre plates from Greiner (384 wells). 20 μl of assay buffer (50 mM of Tris/HCl pH 7.4; 100 mM of sodium chloride; 5 mM of calcium chloride; 0.1% of bovine serum albumin) and 20 μl of factor XIa from Kordia (0.45 nM in assay buffer) are then added successively. After 15 min of incubation, the enzyme reaction is started by addition of 20 μl of the factor XIa substrate Boc-Glu(OBzl)-Ala-Arg-AMC dissolved in assay buffer (10 μM in assay buffer) from Bachem, the mixture is incubated at room temperature (22° C.) for 30 min and fluorescence is then measured (excitation: 360 nm, emission: 460 nm). The measured emissions of the test batches with test substance are compared to those of control batches without test substance (only dimethyl sulfoxide instead of test substance in dimethyl sulfoxide), and IC50 values are calculated from the concentration/activity relationships.

human plasma kallikrein = biological target: T2, human plasma kallikrein (Homo sapiens, UniProt P03952); assay: Determination of the plasma kallikrein activity (fluorogenic peptide substrate H-Pro-Phe-Arg-AMC); assay type: biochemical; conditions: plasma kallikrein from Kordia, 15 min preincubation, 30 min at 22° C., fluorescence; some as mean values from multiple determinations
T2 construct: purchased Kordia
Protocol: as §1, with “To determine the plasma kallikrein” for “The factor XIa”, “invention,” for “invention is determined using”, “system is used” for “system”, “plasma kallikrein” for “factor XIa”, “plasma kallikrein.” for “factor XIa.”
Test substances are dissolved in dimethyl sulfoxide and serially diluted in dimethyl sulfoxide (3000 μM to 0.0078 μM; resulting final concentrations in the test: 50 μM to 0.00013 μM). In each case 1 μl of the diluted substance solutions is placed into the wells of white microtitre plates from Greiner (384 wells). 20 μl of assay buffer (50 mM Tris/HCl pH 7.4; 100 mM sodium chloride solution; 5 mM of calcium chloride solution; 0.1% of bovine serum albumin) and 20 μl of plasma kallikrein from Kordia (0.6 nM in assay buffer) are then added successively. After 15 min of incubation, the enzyme reaction is started by addition of 20 μl of the substrate H-Pro-Phe-Arg-AMC dissolved in assay buffer (10 μM in assay buffer) from Bachem, the mixture is incubated at room temperature (22° C.) for 30 min and fluorescence is then measured (excitation: 360 nm, emission: 460 nm). The measured emissions of the test batches with test substance are compared to those of control batches without test substance (only dimethyl sulfoxide instead of test substance in dimethyl sulfoxide), and IC50 values are calculated from the concentration/activity relationships. Activity data from this test are listed in Table B below (some as mean values from multiple independent individual determinations): […]

T2 sequence (P03952 391-638 limits assumed): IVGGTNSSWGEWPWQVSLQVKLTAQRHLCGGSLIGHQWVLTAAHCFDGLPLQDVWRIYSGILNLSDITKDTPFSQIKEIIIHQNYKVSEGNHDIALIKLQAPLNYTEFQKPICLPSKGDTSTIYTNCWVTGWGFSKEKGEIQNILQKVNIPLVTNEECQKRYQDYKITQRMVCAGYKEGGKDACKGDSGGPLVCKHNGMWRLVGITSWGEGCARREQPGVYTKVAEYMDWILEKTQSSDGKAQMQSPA
T2 sequence (P03952 20-390 partner limits assumed): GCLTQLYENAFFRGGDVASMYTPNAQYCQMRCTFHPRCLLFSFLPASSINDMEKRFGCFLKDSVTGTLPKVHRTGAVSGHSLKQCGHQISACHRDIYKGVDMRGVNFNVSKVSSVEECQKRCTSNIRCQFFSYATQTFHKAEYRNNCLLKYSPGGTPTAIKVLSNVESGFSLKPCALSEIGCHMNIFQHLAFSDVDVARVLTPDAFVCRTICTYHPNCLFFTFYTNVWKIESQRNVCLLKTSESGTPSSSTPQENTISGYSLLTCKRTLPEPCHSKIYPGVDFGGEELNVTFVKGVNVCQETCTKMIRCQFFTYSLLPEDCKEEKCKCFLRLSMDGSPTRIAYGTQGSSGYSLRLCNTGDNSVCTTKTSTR
T1 sequence (P03951 388-625 limits assumed): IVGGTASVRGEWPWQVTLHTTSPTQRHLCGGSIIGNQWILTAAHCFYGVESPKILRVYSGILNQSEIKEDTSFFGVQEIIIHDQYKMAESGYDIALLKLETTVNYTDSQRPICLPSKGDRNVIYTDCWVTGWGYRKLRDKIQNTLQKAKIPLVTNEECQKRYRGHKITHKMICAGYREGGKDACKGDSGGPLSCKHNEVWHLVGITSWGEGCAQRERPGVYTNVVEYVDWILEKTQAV
T1 sequence (P03951 19-387 partner limits assumed): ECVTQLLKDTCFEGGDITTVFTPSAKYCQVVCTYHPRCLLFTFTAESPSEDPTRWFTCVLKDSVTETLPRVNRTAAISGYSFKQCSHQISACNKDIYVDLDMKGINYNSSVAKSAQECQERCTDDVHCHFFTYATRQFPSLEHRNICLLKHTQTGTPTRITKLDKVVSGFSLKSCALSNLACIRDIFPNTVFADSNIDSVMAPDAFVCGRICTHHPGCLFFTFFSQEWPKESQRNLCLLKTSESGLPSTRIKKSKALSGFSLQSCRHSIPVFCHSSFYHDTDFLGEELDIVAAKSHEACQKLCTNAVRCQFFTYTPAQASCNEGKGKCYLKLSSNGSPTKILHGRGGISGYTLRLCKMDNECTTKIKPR

SMILES	IC50 (human factor XIa) [nM]	IC50 (human plasma kallikrein) [nM]
NC(=O)c1ccc(NC(=O)C(C[C@@H]2CCCCO2)n2cc3c(cc2=O)-c2cc(Cl)ccc2CC(C(F)(F)F)OC3)cc1F (mixture of isomers) [Example 50, 4-({2-[11-Chloro-2-oxo-7-(trifluoromethyl)-7,8-dihydro-2H-[3]benzoxocino[5,6-c]pyridin-3(5H)-yl]-3-[(2S)-tetrahydro-2H-pyran-2-yl]propanoyl}amino)-2-fluorobenzamide]	14	1100
NC(=O)c1ccc(NC(=O)C(C[C@@H]2CCCCO2)n2cc3c(cc2=O)-c2cc(Cl)ccc2CC(C(F)(F)F)OC3)cn1 (mixture of isomers) [Example 52, 5-({2-[11-Chloro-2-oxo-7-(trifluoromethyl)-7,8-dihydro-2H-[3]benzoxocino[5,6-c]pyridin-3(5H)-yl]-3-[(2S)-tetrahydro-2H-pyran-2-yl]propanoyl}amino)pyridine-2-carboxamide]	6.5	790
NC(=O)c1ccc(NC(=O)C(C[C@@H]2CCCCO2)n2cc3c(cc2=O)-c2cc(Cl)ccc2CC(C(F)(F)F)OC3)cc1 (mixture of isomers) [Example 54, 4-({2-[11-Chloro-2-oxo-7-(trifluoromethyl)-7,8-dihydro-2H-[3]benzoxocino[5,6-c]pyridin-3(5H)-yl]-3-[(2S)-tetrahydro-2H-pyran-2-yl]propanoyl}amino)benzamide]	2.8	400
NC(=O)c1ccc(NC(=O)C(C[C@@H]2COCCO2)n2cc3c(cc2=O)-c2cc(Cl)ccc2CC(C(F)(F)F)OC3)cc1F (mixture of isomers) [Example 56, 4-({2-[11-Chloro-2-oxo-7-(trifluoromethyl)-7,8-dihydro-2H-[3]benzoxocino[5,6-c]pyridin-3(5H)-yl]-3-[(2R)-1,4-dioxan-2-yl]propanoyl}amino)-2-fluorobenzamide]	7.6	740
NC(=O)c1ccc(NC(=O)C(C[C@@H]2COCCO2)n2cc3c(cc2=O)-c2cc(Cl)ccc2CC(C(F)(F)F)OC3)cc1 (mixture of isomers) [Example 58, 4-({2-[11-Chloro-2-oxo-7-(trifluoromethyl)-7,8-dihydro-2H-[3]benzoxocino[5,6-c]pyridin-3(5H)-yl]-3-[(2R)-1,4-dioxan-2-yl]propanoyl}amino)benzamide]	2.1	230
COCCC(C(=O)Nc1ccc(C(N)=O)c(F)c1)n1cc2c(cc1=O)-c1cc(Cl)ccc1CC(C(F)(F)F)OC2 (mixture of isomers) [Example 60, 4-({2-[11-Chloro-2-oxo-7-(trifluoromethyl)-7,8-dihydro-2H-[3]benzoxocino[5,6-c]pyridin-3(5H)-yl]-4-methoxybutanoyl}amino)-2-fluorobenzamide]	26	780
COCCC(C(=O)Nc1ccc(C(N)=O)cc1)n1cc2c(cc1=O)-c1cc(Cl)ccc1CC(C(F)(F)F)OC2 (mixture of isomers) [Example 62, 4-({2-[11-Chloro-2-oxo-7-(trifluoromethyl)-7,8-dihydro-2H-[3]benzoxocino[5,6-c]pyridin-3(5H)-yl]-4-methoxybutanoyl}amino)benzamide]	8.1	420
COCCC(C(=O)Nc1ccn2ncnc2c1)n1cc2c(cc1=O)-c1cc(Cl)ccc1CC(C(F)(F)F)OC2 (mixture of isomers) [Example 64, 2-[11-Chloro-2-oxo-7-(trifluoromethyl)-7,8-dihydro-2H-[3]benzoxocino[5,6-c]pyridin-3(5H)-yl]-4-methoxy-N-([1,2,4]triazolo[1,5-a]pyridin-7-yl)butanamide]	42	580
CO[C@@H](C)CC(C(=O)Nc1ccc(C(N)=O)cc1)n1cc2c(cc1=O)-c1cc(Cl)ccc1C[C@@H](C(F)(F)F)OC2 (mixture of isomers) [Example 66, 4-({(4S)-2-[(7S)-11-Chloro-2-oxo-7-(trifluoromethyl)-7,8-dihydro-2H-[3]benzoxocino[5,6-c]pyridin-3(5H)-yl]-4-methoxypentanoyl}amino)benzamide]	5.1	320
CC1Cc2ccc(Cl)cc2-c2cc(=O)n(C(C[C@@H]3CCCCO3)C(=O)Nc3ccc(C(N)=O)c(F)c3)cc2CO1 (single isomer, unassigned) [Example 1]	11	630
C[C@@H]1Cc2ccc(Cl)cc2-c2cc(=O)n([C@@H](C[C@@H]3CCCCO3)C(=O)Nc3ccc(C(N)=O)c(F)c3)cc2CO1 (single isomer, unassigned) [Example 2]	5.5	320
C[C@@H]1Cc2ccc(Cl)cc2-c2cc(=O)n([C@@H](C[C@@H]3CCCCO3)C(=O)Nc3ccc(C(N)=O)nc3)cc2CO1 (single isomer, unassigned) [Example 4]	2.4	420
C[C@@H]1Cc2ccc(Cl)cc2-c2cc(=O)n([C@@H](C[C@@H]3CCCCO3)C(=O)Nc3ccc(C(N)=O)cc3)cc2CO1 (single isomer, unassigned) [Example 6]	1.4	140
C[C@@H]1Cc2ccc(Cl)cc2-c2cc(=O)n([C@@H](C[C@@H]3COCCO3)C(=O)Nc3ccc(C(N)=O)c(F)c3)cc2CO1 (single isomer, unassigned) [Example 8]	6.6	320
C[C@@H]1Cc2ccc(Cl)cc2-c2cc(=O)n([C@@H](C[C@@H]3COCCO3)C(=O)Nc3ccc(C(N)=O)cc3)cc2CO1 (single isomer, unassigned) [Example 10]	1.2	87
C[C@@H]1Cc2ccc(Cl)cc2-c2cc(=O)n([C@@H](C[C@@H]3COCCO3)C(=O)Nc3ccc4nn(C)nc4c3)cc2CO1 (single isomer, unassigned) [Example 12]	3.3	42
CO[C@@H](C)C[C@@H](C(=O)Nc1ccc(C(N)=O)cc1)n1cc2c(cc1=O)-c1cc(Cl)ccc1C[C@@H](C)OC2 (single isomer, unassigned) [Example 13]	4.6	205
CO[C@H](C[C@@H](C(=O)Nc1ccc(C(N)=O)cc1)n1cc2c(cc1=O)-c1cc(Cl)ccc1C[C@@H](C)OC2)C1CC1 (single isomer, unassigned) [Example 14]	3.9	220
CO[C@H](C[C@@H](C(=O)Nc1ccc(C(N)=O)cc1)n1cc2c(cc1=O)-c1cc(Cl)ccc1C[C@@H](C)OC2)C(F)F (single isomer, unassigned) [Example 15]	3.4	140
C[C@@H]1Cc2ccc(Cl)cc2-c2cc(=O)n([C@@H](CCOC(F)F)C(=O)Nc3ccc(C(N)=O)cc3)cc2CO1 (single isomer, unassigned) [Example 17]	2	72
C[C@@H]1Cc2ccc(Cl)cc2-c2cc(=O)n([C@@H](C[C@H](C)OC(F)F)C(=O)Nc3ccc(C(N)=O)cc3)cc2CO1 (single isomer, unassigned) [Example 19]	3.6	110
CC(C)OCC[C@@H](C(=O)Nc1ccc(C(N)=O)cc1)n1cc2c(cc1=O)-c1cc(Cl)ccc1C[C@@H](C)OC2 (single isomer, unassigned) [Example 20]	6.6	93
C[C@@H]1Cc2ccc(Cl)cc2-c2cc(=O)n([C@@H](CCOC(C)(C)C)C(=O)Nc3ccc(C(N)=O)c(F)c3)cc2CO1 (single isomer, unassigned) [Example 22]	19	280
C[C@@H]1Cc2ccc(Cl)cc2-c2cc(=O)n([C@@H](CCOC(C)(C)C)C(=O)Nc3ccc(C(N)=O)cc3)cc2CO1 (single isomer, unassigned) [Example 24]	5.4	110
C[C@@H]1Cc2ccc(Cl)cc2-c2cc(=O)n([C@@H](CCOC(C)(C)C)C(=O)Nc3ccn4ncnc4c3)cc2CO1 (single isomer, unassigned) [Example 26]	28	170
